# Assays:
# Type in all cases: cell-based, mouse
# mTORC1 = mTORC1 re-activation after 1 h EAA starvation, Western blotting against phosphorylated S6K1; conditions: wild type and K-Ras^G12D MEFs; EAA-free medium with 1-3% albumin; 500 nM torin 1 added at onset of EAA starvation
# Description: Cells were rinsed with ice-cold PBS and detached from culture plates by incubation with ice-cold trypsin (0.05%). Trypsin was inactivated with ice-cold serum, cells pelleted and rinsed with ice cold PBS. Cells were lysed in ice-cold lysis buffer [50 mM HEPES, pH 7.4, 40 mM […], 2 mM EDTA, 1 mM Na Orthovandanate, 50 mM NaF, 10 mM Na Pyrophosphate, 10 mM Na Glycerophosphate, 1% Triton X-100, 1×Halt protease and phosphatase inhibitor cocktails (Thermo Scientific)] for 15 min, and soluble lysate fractions isolated by centrifugation at 16,000 g for 10 min. Protein concentrations were determined with the Pierce BCA Protein Assay (Thermo Scientific) and equal amounts of proteins analyzed by SDS gel electrophoresis and Western blotting following standard protocols.
# Cell culture experiments were performed at 37° C. and 5% CO2 in DMEM/F12 with 10% dialyzed FBS (molecular weight cut-off 10,000; Gemini Biosystems), 100 U/mL penicillin, 100 μg/mL streptomycin, 5 mM glucose and 2 mM glutamine. For proliferation assays, MEFs were plated in complete medium, 5 h later briefly rinsed and then cultured in starvation medium as indicated. For EAA titration experiments, EAAs were supplemented at indicated percentages of 1×MEM amino acid solution (M5550, Sigma). Cancer cell lines were cultured in complete medium for 1 day prior to starvation. Numbers of adherent cells, which are >95% viable as assessed by Trypan Blue exclusion were determined using a Multisizer 4 Coulter Counter (Beckman). For mTOR activation and localization experiments, cells were rinsed and then incubated in EAA starvation medium (DMEM/F12 lacking all amino acids except glutamine) for 1 h, and subsequently placed in medium supplemented with EAAs (1×MEM amino acid solution), albumin (3%, if not stated otherwise) or fresh EAA-free starvation medium for indicated periods of time.
# Cells can sense EAAs through the mTORC1 pathway, which integrates amino acid levels with inputs from growth factor signaling to promote cell growth (Ma and Blenis, 2009; Shimobayashi and Hall, 2014). When cells are placed in EAA-free medium, the ability of mTORC1 to phosphorylate downstream targets is repressed. To test if catabolism of extracellularly provided proteins could restore mTORC1 activity in the absence of EAAs, mTORC1 was inactivated by subjecting MEFs to 1 h EAA starvation. Fresh medium containing EAAs or different concentrations of albumin was then added and mTORC1 re-activation assessed by Western blotting against phosphorylated S6K1.
# K-Ras^G12D MEFs [1] = experiment: Uptake of fluorescently labeled dextran or albumin; conditions: pre-treated 1 h with 250 nM torin 1; 30 min uptake
# Description: To characterize how cells derive leucine from extracellular proteins, cellular albumin uptake was investigated using constitutively fluorescent albumin and intracellular albumin proteolysis using a self-quenched albumin that emits fluorescence upon degradation (DQ-BSA) (Reis et al., 1998). […] It was then determined whether lysosomal albumin degradation was required to support growth during leucine starvation. […] Ras GTPases can promote cellular uptake of macromolecules through macropinocytosis (Bar-Sagi and Feramisco, 1986). […] To investigate whether this endocytic pathway contributed to albumin-dependent growth, cells were treated with the Na^+/H^+ exchange inhibitor EIPA, which blocks macropinocytosis but not other endocytic pathways (West et al., 1989).
# To distinguish these possibilities, it was first tested whether mTORC1 inhibition increased internalization of extracellular macromolecules. […] It was next examined whether mTORC1 inhibition affected lysosomal degradation of internalized proteins.
# K-Ras^G12D MEFs [2] = experiment: 14C-leucine labeling of proteins and lipids; conditions: mean±STDEV (n=3); control cells 364±69
# Description: Cells were cultured in full medium containing 0.5 μCi (0.4%) L-[^14C(U)]-Leucine (Perkin Elmer) for 24 h. Total lipid and protein fractions were isolated essentially according to the Blight-Dyer method (Bligh and Dyer, 1959). Protein pellets were resolubilized in 6 M guanidine hydrochloride, then transferred to scintillation fluid. Organic phase-dissolved lipids were transferred to scintillation vials, and after solvent evaporation, resuspended in scintillation fluid. ^14C-leucine content of proteins and lipids was quantified by scintillation counting.
# [3] = test system: Ulk1/2 DKO MEFs expressing K-Ras^G12V; experiment: Proliferation of Ulk1/2 DKO MEFs expressing K-Ras^G12V; conditions: leucine-free medium containing 3% albumin; 250 nM torin 1
# Description: (§1) K-Ras^G12D MEFs were pre-treated for 1 h with 250 nM torin 1 and then incubated with fluorescently labeled dextran or albumin. Intracellular dextran or albumin was quantified after 30 min uptake. Data are represented as mean±STDEV (n=6 fields of view with >10 cells each). P-values were calculated using a two-tailed unpaired t-test. n.s. not significant. […] Uptake of fluorescently labeled dextran was quantified after 30 min uptake. Data are represented as mean±STDEV (n=8 fields of view with >10 cells each). P-values were calculated using a two-tailed unpaired t-test. n.s. not significant. […] K-Ras^G12D MEFs were pre-treated for 1 h with 250 nM torin 1, then incubated with fluorescently labeled dextran for indicated periods of time. Data are represented as mean±STDEV (n=8 fields of view with >10 cells each). […] Mean fluorescence intensity per cell was determined after 6 h of DQ-BSA uptake. Data are represented as mean±STDEV (n=7 fields of view with >15 cells each). P-values were calculated using a two-tailed unpaired t-test. ***p<0.001, n.s. not significant. […] DQ-BSA fluorescence intensity is represented as mean±STDEV (n=7 fields of view with >20 cells each). P-values were calculated using a two-tailed unpaired t-test. ***p<0.001. […] DQ-BSA fluorescence intensity is represented as mean±STDEV (n=6 fields of view with >30 cells each). P-values were calculated using a two-tailed unpaired t-test. […]
# [4] = test system: Ulk1/2 wild type and DKO MEFs expressing K-Ras^G12V; experiment: DQ-BSA proteolysis in Ulk1/2 wild type and DKO MEFs expressing K-Ras^G12V; conditions: 250 nM torin 1; Ulk1/2 wild type versus DKO
# Description: as §1
smiles,measurement,setting,value
CCC(=O)N1CCN(c2ccc(-n3c(=O)ccc4cnc5ccc(-c6cnc7ccccc7c6)cc5c43)cc2C(F)(F)F)CC1 [torin 1],albumin-induced S6K1 phosphorylation,mTORC1,completely suppressed
same,cellular uptake of fluorescently labeled dextran or albumin,K-Ras^G12D MEFs [1],neither torin 1 nor Raptor knockdown elevated cellular uptake
same,ratio of protein to lipid incorporation of 14C-leucine label,K-Ras^G12D MEFs [2],203±27
same,cell proliferation,[3],enhanced proliferation
same,DQ-BSA proteolysis in response to torin 1,[4],comparable increase in DQ-BSA proteolysis

# — patent US20210346354A1, “MACROPINOCYTOSIS IN CANCER” (Memorial Sloan-Kettering Cancer Center, priority 2015, published 2021)
